# Earlier results in patent US10905116B2, “Antimicrobial fabric assemblies” (Higher Dimension Materials, Inc., priority 2016, dated 2021).
# Experiments:
# [1] = test system: bacterium
# [2] = test system: E. coli; details: against E. coli
structure (smiles),measurement,setting,value
[Ag+] [silver ion],silver ion concentration enough to cause antimicrobial activity,"[1]; released from silver nanoparticles confined in nanoscale cages, conditions of normal water, estimated",50 parts per billion
same,number of silver ions to kill a single bacterium,[1]; reported,about 100
[Ag] [silver],MIC value (Minimum Inhibitory Value),[2],0.05 to 0.1 µg/mL
